Tests used:
[1] = system: HUVEC; test: Proliferation assay, ELISA of BrdU incorporation; type: cell-based, human; settings: 24 h, data not shown
Experimental: To assess HUVEC proliferation, 1×10^4 cells were seeded in duplicate in a 96-well plate and cultured for 24 h without or with cyclo[DKP-RGD] 1 at different concentrations. Proliferation was then measured by a colorimetric immunoassay, based on the ELISA measurement of bromodeoxyuridine (BrdU) incorporation during DNA synthesis. The absorbance (ABS) of the samples was determined by means of a spectrophotometer (Model 680, Bio-Rad Laboratories, Hercules, CA, USA) with wavelength set at 450 nm, and finally expressed as the difference between BrdU positive and negative samples, expressed as Optical Density (O.D.).

[2] = system: HUVEC; test: Cell migration, Boyden chamber assay; type: cell-based, human; settings: for effect on spontaneous migration / effect on stimulated migration: 5 h at 37°C; for effect on stimulated migration: VEGF, EGF, IGF-I and FGF2 in bottom chamber
Experimental: Cell migration was measured by means of a Boyden chamber assay. Briefly, 1×10^5 HUVEC were seeded in the top well of the Boyden chamber, cyclo[DKP-RGD] 1 was added in the bottom or in the top compartment, and a 3 μm-pore cellulose nitrate filter was placed between the two compartments. Stimulated migration was assessed by putting VEGF, EGF, IGF-I, and FGF2 in the bottom chamber. After an incubation period of 5 h at 37°C, the filter was recovered, dehydrated, fixed, and finally stained with hematoxylin. Migration into the filter was quantified by measuring the distance (in μm) from the surface of the filter to the leading front of cells using an optical microscope (Axiolab, Carl Zeiss S.p.A. Milan, Italy).

[3] = system: HUVEC; test: Angiogenesis assay, network formation on Matrigel; type: cell-based, human; settings: 5 h
Experimental: To assess angiogenic activity, HUVEC 2.5×10^4 cells were seeded in a 24-well plate coated with 100 μl/well of Matrigel previously polymerized for 1 h at 37°C. […] 1 under either resting or stimulated conditions. In some experiments IL-8 (10 nM) was used as pro-angiogenic stimulus. Network formation was evaluated by phase‒contrast microscopy using a fluorescence microscope (Axiovert 40CFL, Carl Zeiss S.p.A. Milan, Italy). Network formation was finally quantified in terms of mean number of loops per field as topological parameters and the total length of the branches. For the purpose of the analysis, loops were defined as any complete ring formed by HUVEC, while open ramifications were considered as branches. The total branch length (pixels) and the number of loops were quantified using the ImageJ image analysis software (http://rsbweb.nih.gov/ij/).

[4] = system: αv integrin subunit mRNA in HUVEC; test: Real time PCR, mRNA of integrin subunit αv; type: cell-based, human; settings: 1 μM, 5 h, mean ± SD of 3 experiments; for αv mRNA, 2^-Δct ×10^2: GAPDH housekeeping
Experimental: (§1) Cells were treated for 5 h in the presence or absence of 1 μM cyclo[DKP-RGD] 1 in different growth conditions, as previously described. At the end of the treatment, RNA extraction was performed using the Qiazol lysis reagent. Primers were designed by using the “Primer3 input” software (http://frodo.wi.mit.edu/cgi-bin/primer3/primer3.cgi/primer3_www.cgi) and the specificity of each primer was controlled by the BLAST software (http://blast.ncbi.nlm.nih.gov) (Table 1). Real time PCR was performed as previously reported At the end of the reaction, a melting curve analysis was carried out to check for the presence of primer-dimers. Comparison of the expression of each gene was determined by using GAPDH as housekeeping gene. Each run was analyzed in duplicate and data are finally expressed as 2^-Δct.

[5] = system: β3 integrin subunit mRNA in HUVEC; test: Real time PCR, mRNA of integrin subunit β3; type: cell-based, human; settings: 1 μM, 5 h, mean ± SD of 3 experiments; for β3 mRNA, 2^-Δct ×10^2: GAPDH housekeeping
Experimental: as §1

[6] = system: β5 integrin subunit mRNA in HUVEC; test: Real time PCR, mRNA of integrin subunit β5; type: cell-based, human; settings: 1 μM, 5 h, mean ± SD of 3 experiments; for β5 mRNA, 2^-Δct ×10^2: GAPDH housekeeping
Experimental: as §1

[7] = system: Akt phosphorylation in HUVEC; test: Western blot analysis of Akt phosphorylation; type: cell-based, human; settings: 5 h
Experimental: Cells grown in 60-mm dishes were treated for 5 h with 1 μM cyclo[DKP-RGD] 1. The cells were then rinsed twice in ice-cold PBS and 200 μl of the cell lysis buffer (composition: 50 mM Tris–HCl pH 7.4, 1% v/v NP40, 0.25% w/v sodium deoxycholate, 1 mM phenylmethylsulphonyl-fluoride, 1 mM Na3VO4, 1 mM EDTA, 30 mM sodium pyrophosphate, 1 mM NaF, 1 mg/ml leupeptin, 1 mg/ml pepstatin A, 1 mg/ml aprotinin and 1 mg/ml microcystin) was added to the dishes. After scraping, cells were sonicated for 10 s, centrifuged at 12000 g for 5 min at 4°C and the amount of proteins in the supernatant was measured using the BCA protein assay. For western blot analysis, 20 μg of proteins were separated by 10% SDS–PAGE at 150 V for 2 h and blotted onto […] nitrocellulose membranes at 90 mA for 16 h. The membranes were first blocked for 2 h in TRIS buffered saline solution (TBST, composition: TRIS 10 mM, NaCl 150 mM, 0.1% Tween 20) plus 5% low fat dry milk (TBSTM) and then incubated with the appropriate antibody diluted 1:1000 in TBSTM, for 16 h at 4°C under gentle agitation. The membranes were rinsed three times in TBST and then incubated for 2 h at 21°C with the secondary antibody diluted 1:10000 in TBSTM. Membranes were then rinsed three times in TBST and luminescence was detected by using the appropriate kit, and densitometric analysis was performed as previously reported.

[8] = system: HUVEC
[9] = system: αvβ3 integrin; settings: read-out: IC50, inhibition of vitronectin binding to αvβ3 integrin; cited from earlier work
From the text: (§2) HUVEC represent a valid in vitro model which provides seminal insights into the cellular and molecular events leading to neovascularization in response to inflammation and hypoxia in cancer, ischemic events, and in embryogenesis. As anticipated in the introduction, integrins are key actors in angiogenesis and vascular homeostasis, acting as promoters of endothelial cell-matrix interactions. It has been recognized that pharmacological inhibition of the αvβ3 subtype suppresses angiogenesis in many experimental models and αvβ3 antagonists (i.e. antibodies, peptides and peptidomimeti ...

[10] = system: αvβ5 integrin; settings: read-out: IC50, inhibition of vitronectin binding to αvβ5 integrin; cited from earlier work
From the text: as §2

[11] = system: ovarian carcinoma IGROV-1; settings: cited from earlier work
[12] = system: ovarian carcinoma SKOV3; settings: cited from earlier work
[13] = system: human pancreatic carcinoma PANC-1; settings: cited from earlier work
[14] = system: human pancreatic carcinoma MIA-PaCa2; settings: cited from earlier work
[15] = system: human osteosarcoma U2-OS; settings: cited from earlier work
[16] = system: HUVEC; test: Cell viability by flow cytometry, annexin V/PI staining; settings: 24 h, mean ± SD, n = 4, P > 0.05 vs control
[17] = in the same or very close concentration range as the anti-angiogenic activity; cited from earlier work
Experimental: In our experiments, the effects of cyclo[DKP-RGD] 1 on HUVEC activity were tested in resting conditions as well as in the presence of a culture medium enriched with growth factors known to promote angiogenesis such as VEGF, EGF, IGF-I and FGF2 or after addition of the pro-inflammatory chemokine IL-8, which has a key role in the regulation of pathological angiogenesis. According to our results, cyclo[DKP-RGD]

cyclo[DKP-RGD] [cyclo[DKP-RGD] 1]
effect on basal proliferation (BrdU incorporation) ([1]; basal conditions, up to 1×10^−5 M): did not significantly affect | effect on stimulated proliferation (BrdU incorporation) ([1]; with VEGF, EGF, IGF-I and FGF2, up to 1×10^−5 M): did not significantly affect | concentration of the peak of the bell-shaped effect on migration ([2]; Boyden chamber, not observed in the angiogenesis assay): about 1×10^−9 M | effect on spontaneous migration ([2]; compound in bottom chamber): increased | effect on stimulated migration ([2]; compound in bottom chamber): increased | effect on spontaneous migration ([2]; compound in top chamber together with cells): increased | effect on stimulated migration ([2]; compound in top chamber): decreased | effect on angiogenesis induced by IL-8 ([3]; IL-8 10 nM, P < 0.01 vs control): significantly and profoundly decreased | effect on angiogenesis (network formation: loops, branch length) ([3]; basal conditions): did not significantly affect | effect on angiogenesis induced by VEGF, EGF, IGF-I, and FGF2 ([3]; stimulated conditions, P < 0.01 vs control): significantly and profoundly decreased | αv mRNA, 2^-Δct ×10^2 ([4]; basal conditions): 6.59 ± 5.24 | αv mRNA, Ratio vs Control ([4]; basal conditions): 1.32 ± 0.57 | αv mRNA, 2^-Δct ×10^2 ([4]; with VEGF, EGF, IGF, and FGF): 15.09 ± 10.66 | αv mRNA, Ratio vs Control ([4]; with VEGF, EGF, IGF, and FGF): 1.28 ± 0.42 | β3 mRNA, 2^-Δct ×10^2 ([5]; basal conditions): 0.91 ± 0.76 | β3 mRNA, Ratio vs Control ([5]; basal conditions): 1.08 ± 0.27 | β3 mRNA, 2^-Δct ×10^2 ([5]; with VEGF, EGF, IGF, and FGF): 1.41 ± 1.07 | β3 mRNA, Ratio vs Control ([5]; with VEGF, EGF, IGF, and FGF): 1.43 ± 0.35 | β5 mRNA, 2^-Δct ×10^2 ([6]; basal conditions): 1.52 ± 1.34 | β5 mRNA, Ratio vs Control ([6]; basal conditions): 1.08 ± 0.07 | β5 mRNA, 2^-Δct ×10^2 ([6]; with VEGF, EGF, IGF, and FGF): 1.31 ± 1.13 | β5 mRNA, Ratio vs Control ([6]; with VEGF, EGF, IGF, and FGF): 1.34 ± 0.46 | phosphorylated Akt, % of control ([7]; basal conditions, 1×10^−6 M, n = 3, P = 0.001): 53.2 ± 7.9 % of control | phosphorylated Akt ([7]; basal conditions, 1×10^−6 M, n = 3, P = 0.001, control 16241.7 ± 1763.3): 8702.7 ± 2008.7 optical density arbitrary units | phosphorylated Akt ([7]; with VEGF, EGF, IGF-I, and FGF2, 1×10^−6 M, n = 3, P = 0.735, control 15406.0 ± 1218.8): 15174.7 ± 663.9 optical density arbitrary units | effect on percentage of viable, early apoptotic, late apoptotic/necrotic or necrotic cells [8]: did not affect | IC50 [9]: 4.5 ± 1.1 nM | IC50 [10]: 149 ± 25 nM | cytotoxic effects [11]: lack of cytotoxic effects | cytotoxic effects [12]: lack of cytotoxic effects | cytotoxic effects [13]: lack of cytotoxic effects | cytotoxic effects [14]: lack of cytotoxic effects | cytotoxic effects [15]: lack of cytotoxic effects | viable cells (ANX-/PI-) ([16]; basal conditions, 1×10^−6 M): 85.4 ± 3.4% | viable cells (ANX-/PI-) ([16]; with VEGF, EGF, IGF-I and FGF2, 1×10^−6 M): 86.8 ± 9.2%

cyclo-[Arg-Gly-Asp-D-Phe-N(Me)-Val] (head to tail) [cilengitide]
cytotoxic activity [17]: exhibit cytotoxic activity

From article PMC4105520, “Effects of a novel cyclic RGD peptidomimetic on cell proliferation, migration and angiogenic activity in human endothelial cells” (Vascular Cell, 2014)
